Data published in patent publication US20100292316A1, “IMPROVED THERAPEUTIC METHODS AND COMPOSITIONS COMPRISING CHROMAN RING COMPOUNDS” (Research Development Foundation, priority 2007, published 2010).

Columns and labels:
Type in all cases: cell-based, human
PARP = PARP cleavage (p84) by Western blot, densitometry
Protocol: Whole-cell protein extracts were prepared as described previously (Yu et al., 1999), and 50 μg of protein was loaded per lane, separated using SDS-PAGE on a 10-15% gel under reducing conditions, and electroblotted onto a nitrocellulose membrane ([…] Optitran BA-S-supported nitrocellulose; Schleicher and Schuell, Keene, N.H.). Equal loading was verified using GAPDH antibody. Primary rabbit antibodies with specificity for PARP and primary goat antibody with specificity for Arg were purchased from Santa Cruz Biotechnology (Santa Cruz, Calif.). Horseradish peroxidase conjugated goat anti-rabbit or horseradish goat anti-mouse secondary antibody was purchased from Jackson Immunoresearch Laboratory (West Grove, Pa.). Horseradish peroxidase-conjugated donkey anti-goat serum was purchased from Santa Cruz Biotechnology. Immune complexes were visualized using enhanced chemiluminescence detection (Pierce Chemical Co., Rockford, Ill.). Fold differences in level of chemiluminescence were determined by densitometric analyses.
Primary mouse antibody specific for p73 was purchased from IMGENEX (San Diego, Calif.). Primary mouse antibody specific for caspase 8 was purchased from Cell Signaling Technology (Beverly, Mass.). Horseradish peroxidase conjugated goat anti-rabbit or goat anti-mouse secondary antibodies were purchased from Jackson Immunoresearch Laboratory (West Grove, Pa.). Horseradish peroxidase-conjugated donkey […] serum was purchased from Santa Cruz Biotechnology. Immune complexes were visualized using enhanced chemiluminescence detection (Pierce Chemical Co., Rockford, Ill.). Fold differences in level of chemiluminescence were determined by densitometric analyses.

NOXA = NOXA mRNA (RT-PCR) and protein (Western blot) levels
c-Jun = c-Jun phosphorylation (JNK substrate) by Western blot
Protocol: Similar results were also observed in α-TEA treated MCF-7 cells in the presence of JNK inhibitor II (7.5 μM of JNK inhibitor II (Calbiochem-Novabiochem Corp. San Diego, Calif.) vs. DMSO control). Specifically, 68% reduction in the level of phosphorylated c-Jun (FIG. 11B, top panel), almost 100% reduction in NOXA expression (FIG. 11B, second panel), and 29% reduction in the level of PARP cleavage (FIG. 11B, third panel).
JNK siRNA was used to determine if JNK was involved in α-TEA regulation of NOXA expression. MDA-MB-435 and MCF-7 cells were transiently transfected with siRNA specific for JNK1/2 (JNK1/2 sense (5′-AAA GAA UGU CCU ACC UUC Utt-3′), JNK1/2 antisense (5′AGA AGG UAG GAC AUU CUU Utt-3′)). The cells were then treated with α-TEA for 15 h, or 20 h, respectively. […] Likewise in MCF-7 cells JNK siRNA blocked JNK1 phosphorylation by 26% (FIG. 11D, first panel), blocked c-Jun phosphorylation by 36% (FIG. 1D, second panel), reduced protein levels of full length p73 by 66% (FIG. 1D, third panel), reduced protein levels of NOXA by 14% (FIG. 1D, fourth panel), and reduced level of PARP cleavage by 44% (FIG. 11D, fifth panel). Anti-p73 antibodies used in the foregoing experiment were purchases from IMGENEX (San Diego, Calif.).

Akt = experiment: Western blot of phosphorylated Akt (Ser 473) and total Akt in prostate cancer cells
Excerpt: Previous studies have shown that α-TEA is an effective inducer of apoptosis in human prostate cancer cells (Anderson et al., 2004). Dose- and time-dependent pro-apoptotic effects of α-TEA in prostate cancer cells are mediated by Fas/FADD/caspase-8/tBid and Fas/Daxx/Ask1/JNK1/2/Bax, leading to activation of caspases-9 and -3. Thus, the Akt inhibiting activity of α-TEA was investigated in prostate cancer cells. Since phosphorylation of Akt at Ser 473 is required for its full activation (Cheng et al., 2005), we examined the phosphorylation status of Akt using an antibody that specifically recognizes Akt phosphorylated at Ser 473 in all three Akt isoforms (Upstate Cell Signaling Solutions (Charlottesville, Va.)). α-TEA decreased the levels of the phosphorylated forms of Akt. […] As verification that the decreases in phosphorylation status of Akt correlated with decreased kinase activity, the phosphorylation status of GSK3β, a downstream Akt target, was evaluated following α-TEA treatments. […] GAPDH levels were assayed with each immunoblot assay as a protein loading control.
Since Akt has three isoforms; namely, Akt1, Akt2, and Akt3, it was of interest to determine if α-TEA treatment was reducing the phosphorylated status of all three isoforms. Following α-TEA treatment the three Akt isoforms were immunoprecipitated with isoform specific antibodies, followed by western immunoblotting analyses using antibody specific for phospho-Akt. The protein levels of the isoforms were also determined. […] Treatment diminished the phosphorylation levels in all three Akt isoforms in both LNCaP and PC-3-GFP cells.
1×10^7 LNCaP or PC-3 3-GFP cells were treated with α-TEA and lysed in RIPA lysis buffer in the presence of protease inhibitors. […] Beads were washed 4 times with PBS and the proteins were released from the beads by boiling in Laemmli buffer for 5 min. Immunoprecipitated proteins were identified by SDS-PAGE followed by western immunoblot analyses.
Since Akt is activated, at least in part, by PI3K, we were interested to see if blockage of PI3K activity using the PI3K inhibitor LY294002 (Calbiochem-Novabiochem Corp. (San Diego, Calif.)) (Vlahos et al., 1994) would augment the apoptotic response induced by α-TEA.

LNCaP cells = experiment: Apoptosis by DAPI staining, LNCaP
Protocol: Cells were plated at 2×10^6 in 100 mm cell culture plates, cultured overnight and washed with serum free media before transfection. Plasmids (0.7 μg or 4.2 of μg) or empty vector (pcDNA3) were mixed with 50 μl or 300 μl serum free media and 4 μl or 24 μl PLUS reagent (Invitrogen, CA) and incubated for 15 min at room temperature. Next 2 μl or 12 μl of Lipofectamine reagent (Invitrogen, CA) in 50 μl or 300 μl serum free media were added and the mixture incubated for another 15 min before adding to the cells in 0.5 ml or 5 ml serum free media. Cells were incubated with transfection reagents for 3 h and the growth media containing 2×FBS was added to the cells. Transfected cells were cultured overnight before α-TEA treatment. Transfection efficiency was determined to be 70% using GFP expressing plasmid.
(§1) Assessment of apoptosis based on nuclear morphology using 4′, 6-diamidino-2-phenylindole dihydrochloride (DAPI; Boehringer Mannheim Corp. Indianapolis, Ind.) has been described previously (Yu et al., 2003; Israel et al., 2000). Briefly, 1.5×10^5/well LNCaP or PC-3-GFP cells were plated in 12-well tissue culture plates and cultured overnight to allow cells to attach. On the next day, cells were treated with various concentrations of α-TEA and incubated for various time periods. At the end of treatments, cells were collected, washed with PBS, stained with 25 μl of 2 μg/ml DAPI, and viewed under a fluorescent microscope (model ICM 405 with a model 487701 filter, Zeiss). Cells which contained clearly condensed chromatin or fragmented nuclei were scored as apoptotic cells. ≧500 cells were counted in each sample. Apoptotic data are presented as percentage of apoptotic cells±S.D. for three independent experiments.
FOXO1 siRNA used in the study was purchased from Santa Cruz (Santa Cruz, Calif.). […] Transfection of human prostate cancer cells with FOXO1 siRNA or negative control siRNA was performed in 100 mm cell culture dishes at a density of 2×10^6 cells/dish using Lipofectamine 2000 (Invitrogen, Carlsbad, Calif.) and 300 pmol of siRNA duplex, resulting in a final siRNA concentration of 30 nM. siRNA transfected cells were incubated for 48-72 h prior to α-TEA treatment.

PC-3-GFP cells = experiment: Apoptosis by DAPI staining, PC-3-GFP
Protocol: as §1

[1] = MCF-7 cells, 40 μM α-TEA 20 h, vs DMSO or control siRNA
[2] = MDA-MB-435 cells, 40 μM α-TEA 15 h, vs vehicle or control siRNA

Row | Compound | reduction of level of PARP cleavage in α-TEA treated cells (PARP; [1]) [%] | reduction of PARP cleavage (p84 fragment) in α-TEA treated cells (PARP; MDA-MB-435 cells, 40 μM α-TEA 15 h, vs control siRNA or vehicle) [%] | reduction of α-TEA-induced NOXA expression (NOXA; [1]) [%] | reduction of α-TEA-induced NOXA expression (NOXA; [2]) [%] | reduction of α-TEA-induced c-Jun phosphorylation (c-Jun; [1]) [%] | reduction of α-TEA-induced c-Jun phosphorylation (c-Jun; [2]) [%] | inhibition of levels of endogenously phosphorylated Akt (Akt; LNCaP cells, 10 μM α-TEA and/or 10 μM LY294002) [%] | inhibition of levels of endogenously phosphorylated Akt (Akt; PC-3-GFP cells, 20 μM α-TEA and/or 10 μM LY294002) [%] | induction of apoptosis (apoptotic cells) (LNCaP cells; 6 μM LY294002, 24 h) [%] | induction of apoptosis (apoptotic cells) (LNCaP cells; 12 μM LY294002, 24 h) [%] | induction of apoptosis (apoptotic cells) (LNCaP cells; 25 μM LY294002, 24 h) [%] | apoptotic cells (PC-3-GFP cells; 25 μM LY294002, 24 h) [%] | apoptotic cells (PC-3-GFP cells; 50 μM LY294002, 24 h)
1 | O=C1c2ccccc2-c2n[nH]c3cccc1c23 [JNK inhibitor II] | 29 | 34 | ~100 | 41 | 68 | 38 | – | – | – | – | – | – | –
2 | O=c1cc(N2CCOCC2)oc2c(-c3ccccc3)cccc12 [LY294002, 2-(4-morpholinyl)-8-phenyl-4H-1-benzopyran-4-one, reference compound] | – | – | – | – | – | – | 20 | 60 | 4.9 | 13 | 41 | 6.2 | approximately 15%
